US20230000811A1, “COMPOSITIONS FOR DISRUPTING BIOFILM FORMATION AND FOR TREATING BIOFILM-RELATED DISORDERS” (AHV International B.V., priority 2020, published 2023)

Assays:
Format in all cases: cell-based
[1] = system: heterotrophic microbial biofilm; test: Biofilm eradication in PBR (photobioreactor), released CFU's
Procedure: In order to determine the anti-biofilm effect of PTSO, PTS and DPD (dipropyl disulfide), a biofilm was grown under controlled conditions in a glass tube reactor, the PBR. A photobioreactor was used as model system because biofilm formation was clearly visible in the glass tubes. After a mature biofilm was formed, increasing levels of pure PTSO, PTS or DPD were added and the biofilm was removed by titration of pure PTSO, PTS or DPD and the dosages were determined that the biofilm was eradicated. Hereafter, the microbial composition was determined of the biofilm by deep sequencing.
Heterotrophic microbial biofilm: a biofilm was cultivated in a 26.5-liter glass photobioreactor (PBR) with a tube length of 37-meter incl. bends (the GemTube RD-25 Glass of LGEM). The PBR was filled with 22 liters of not sterilized medium (fable 1).
The medium further contained 1 g/l glucose. Inoculation took place by the adding 500 ml ditch water from the Zuidpolder near Delfgauw. Air was pumped in with a rate of 1.0 liter/min: at this setting the medium circulation through the PBR in the medium was as low as possible but there was a stable hold-up to realize medium circulation in the PBR. The PBR was covered with a dark plastic screen to prevent exposure to the light. Incubation took place at 12-18° C. and pH was controlled 5 times per week to 5.2-5.7, once per 1.5 day. After a total dosage of 5 g/l glucose, (after 1 week) a slimy layer (biofilm) was formed that covers the whole inner surface of the glass tube. The medium was replaced by fresh medium without glucose when the biofilm was formed.
Pure PTSO and PTS were obtained as is indicated in example 1 and stable solutions were prepared in water by sonication of 1000× diluted mixtures. DPD (dipropyl disulfide >98% pure) was supplied by Sigma. After each addition step the biofilm culture was incubated for 24 hours to observe the stability of the biofilm.
The numbers of aerobic, anaerobic/micro-aerophilic and fungal CFU's in the biofilm and supernatant were determined according to standard operating procedures as follows: for aerobic colony forming units per ml (CFU/ml) see https://www.iso.org/standard/53728.html; for the determination of anaerobic CFU's/ml see https://www.thermofisher.com/order/catalog/product/AN0025A#HAN0025A (the plates are incubated in an oxygen-free container) and with respect to the numbers of colony forming unites for fungi see http://edgeanalytical.com/wp-content/uploads/Food_AOAC-997.02.pdf (see Table 2).
Another sample of the biofilm was drawn and a part was stored at minus 80 degrees as inoculum material for further studies. The other part of the biofilm was dissolved by gentle sonification and used to determine the aerobic, anaerobic and fungal numbers of colony forming units as described above. Hereafter it was calculated whether the numbers of colony forming microorganisms in the medium corresponded with the number of microorganisms in the biofilm prior to the treatment. In this way it was calculated whether the microorganisms were killed by the treatments, or that the bacteria remained alive and that only the biofilm was solubilized.
In order to investigate whether PTSO has a destabilizing effect of the biofilm or simply kills the microorganisms, samples were drawn from the biofilm before the treatments and samples of the liquid medium were drawn before and after treatment and were inoculated as described above to determine the number of colony forming units. Hereafter it was calculated whether the numbers of colony forming microorganisms in the medium corresponded with the number of microorganisms in the biofilm prior to the treatment. In this way it was calculated whether the microorganisms are killed by the treatments, or that the bacteria remained alive and that only the biofilm was solubilized (fable 6).

Streptococcus uberis [2] = test: MBEC (biofilm eradication); settings: Str. uberis clinical isolate
Description: (§1) In this example the following bacterial strains were used: Staphyllococcus aureus ATCC 25923 obtained from the ATCC collection; Staphyllococcus aureus 074 was kindly provided by prof. Fink, Faculty of Veterinary Medicine, Utrecht University, the Netherlands, described as a clinical isolate from cows with mastitis. Information for the strain is further given in: Melchior, M. B., Fink-Gremmels, J., & Gaastra, W. (2006). Comparative Assessment of the Antimicrobial Susceptibility of Staphylococcus aureus Isolates from Bovine Mastitis in Biofilm Versus Planktonic Culture. Journal of Veterinary Medicine Series B, 53(7), 326-332; Staphyllococcus aureus ATCC 15564 obtained from the ATCC collection and Streptococcus uberis clinical isolate from a cow with mastitis, part from the collection of Department of Veterinary Microbiology, Infectious and Parasitic Diseases, Trakia University, Bulgary.
(§2) Minimum Biofilm Inhibitory Concentration (MBIC) and Microtiter Biofilm Eradication concentration (MBEC) are defined and measured as indicated in table 7.
(§3) Applying the methods as summarised in table 7, the above-mentioned bacteria were tested with PTSO/PTS enriched plant extract, pure PTSO, and pure PTS as described in example 1 and DPD as described in example 2.

[3] = system: Staphylococcus aureus strains; test: MBEC (biofilm eradication)
Description: as §1, §2, §3

Streptococcus uberis [4] = test: MBIC 90 (minimum biofilm inhibitory concentration); settings: Str. uberis clinical isolate
Description: as §1, §2, §3

[5] = system: Staphylococcus aureus strains; test: MBIC 90 (minimum biofilm inhibitory concentration)
Description: as §1, §2, §3

[6] = PTSO cumulative dosage 0.05 ul/l culture (dose 0.05), day 2
[7] = PTSO cumulative dosage 0.15 ul/l culture (dose 0.1), day 6
[8] = PTSO cumulative dosage 0.65 ul/l culture (dose 0.5), day 8
[9] = PTSO cumulative dosage 1.65 ul/l culture (dose 1.0), day 13
[10] = PTSO cumulative dosage 3.65 ul/l culture (dose 2.0), day 15
[11] = after 208 mg pure DPD/liter culture
[12] = total dose DPD (cumulative) 1 ul/l (dose 0.50)
[13] = total dose DPD (cumulative) 2 ul/l (dose 1.00)
[14] = total dose DPD (cumulative) 7 ul/l (dose 5.00)
[15] = total dose DPD (cumulative) 17 ul/l (dose 10.00)
[16] = total dose DPD (cumulative) 67 ul/l (dose 50.00)
[17] = total dose DPD (cumulative) 117 ul/l (dose 50.00)
[18] = total dose DPD (cumulative) 167 ul/l (dose 50.00)
[19] = total dose DPD (cumulative) 217 ul/l (dose 50.00)
[20] = total dose DPD (cumulative) 267 ul/l (dose 50.00)
[21] = total dose DPD (cumulative) 317 ul/l (dose 50.00)
[22] = total dose DPD (cumulative) 367 ul/l (dose 50.00)
[23] = total dose DPD (cumulative) 417 ul/l (dose 50.00)
[24] = total dose DPD (cumulative) 467 ul/l (dose 50.00)
[25] = total dose DPD (cumulative) 517 ul/l (dose 50.00)

SMILES: CCCSS(=O)(=O)CCC (single isomer, unassigned) [PTSO, propyl-propane thiosulfonate]
- Aerobic CFU's after 24 hours [1, 6]: 2,033 ×1000
- Anaerobic CFU's after 24 hour [1, 6]: 383 ×1000
- Fungal CFU's after 24 hours [1, 6]: 150 ×1000
- Aerobic CFU's after 24 hours [1, 7]: 3,367 ×1000
- Anaerobic CFU's after 24 hour [1, 7]: 750 ×1000
- Fungal CFU's after 24 hours [1, 7]: 150 ×1000
- Aerobic CFU's after 24 hours [1, 8]: 6,267 ×1000
- Anaerobic CFU's after 24 hour [1, 8]: 1,127 ×1000
- Fungal CFU's after 24 hours [1, 8]: 517 ×1000
- Aerobic CFU's after 24 hours [1, 9]: 17,333 ×1000
- Anaerobic CFU's after 24 hour [1, 9]: 4,400 ×1000
- Fungal CFU's after 24 hours [1, 9]: 20,333 ×1000
- Aerobic CFU's after 24 hours [1, 10]: 5,867 ×1000
- Anaerobic CFU's after 24 hour [1, 10]: 2,933 ×1000
- Fungal CFU's after 24 hours [1, 10]: 1,567 ×1000
- Total (released from biofilm) colony forming units/ml, In culture supernatant ([1]; after 0.9 mg pure PTSO/liter culture): 42,000 units/ml (×1000)
- Total colony forming units/ml, In biofilm ([1]; after 0.9 mg pure PTSO/liter culture, 0* means biofilm had disappeared): 0* units/ml (×1000)
- % volume biofilm in relation to culture volume ([1]; after 0.9 mg pure PTSO/liter culture, before start treatment 18): 0%
- total dosage at which the biofilm became significantly thinner ([1]; mature biofilm in PBR, visual observation): 0.65 ul/l
- total dosage at which disintegration / release of the biofilm becomes visible ([1]; mature biofilm in glass tube PBR, visual observation): 0.05 ul/l
- MBEC (biofilm eradication) (Streptococcus uberis [2]): 512 µg/mL
- MBEC (biofilm eradication) ([3]; St. aureus 074): 256 µg/mL
- MBEC (biofilm eradication) ([3]; St. aureus ATCC 15564): 256 µg/mL
- MBEC (biofilm eradication) ([3]; St. aureus ATCC 25923): 512 µg/mL
- MBIC 90 (Streptococcus uberis [4]): 128 µg/mL
- MBIC 90 ([5]; St. aureus 074): 128 µg/mL
- MBIC 90 ([5]; St. aureus ATCC 15564): 128 µg/mL
- MBIC 90 ([5]; St. aureus ATCC 25923): 128 µg/mL

SMILES: CCCSSCCC [DPD, dipropyl disulfide]
- state of the biofilm at the highest dosages (visual) ([1]; PBR, highest dosage(s) added): did not remove the remainder of the thin biofilm
- Total (released from biofilm) colony forming units/ml, In culture supernatant [1, 11]: 3,403 units/ml (×1000)
- Total colony forming units/ml, In biofilm [1, 11]: 0 units/ml (×1000)
- % volume biofilm in relation to culture volume ([1]; after 208 mg pure DPD/liter culture, before start treatment 7): 0%
- total addition at which the biofilm started to release from the glass ([1]; after dose 8, visual observation): 160 mg pure DPD/liter
- Aerobic CFU's after 24 hours [1, 12]: 400000 ×1000
- Anaerobic CFU's after 24 hour [1, 12]: 45333 ×1000
- Fungal CFU's after 24 hours [1, 12]: 33333 ×1000
- Aerobic CFU's after 24 hours [1, 13]: 440000 ×1000
- Anaerobic CFU's after 24 hour [1, 13]: 43333 ×1000
- Fungal CFU's after 24 hours [1, 13]: 29000 ×1000
- Aerobic CFU's after 24 hours [1, 14]: 390000 ×1000
- Anaerobic CFU's after 24 hour [1, 14]: 43333 ×1000
- Fungal CFU's after 24 hours [1, 14]: 35000 ×1000
- Aerobic CFU's after 24 hours [1, 15]: 403333 ×1000
- Anaerobic CFU's after 24 hour [1, 15]: 39333 ×1000
- Fungal CFU's after 24 hours [1, 15]: 25333 ×1000
- Aerobic CFU's after 24 hours [1, 16]: 376667 ×1000
- Anaerobic CFU's after 24 hour [1, 16]: 40333 ×1000
- Fungal CFU's after 24 hours [1, 16]: 24000 ×1000
- Aerobic CFU's after 24 hours [1, 17]: 426667 ×1000
- Anaerobic CFU's after 24 hour [1, 17]: 37667 ×1000
- Fungal CFU's after 24 hours [1, 17]: 22333 ×1000
- Aerobic CFU's after 24 hours [1, 18]: 563333 ×1000
- Anaerobic CFU's after 24 hour [1, 18]: 43000 ×1000
- Fungal CFU's after 24 hours [1, 18]: 18333 ×1000
- Aerobic CFU's after 24 hours [1, 19]: 1766667 ×1000
- Anaerobic CFU's after 24 hour [1, 19]: 267000 ×1000
- Fungal CFU's after 24 hours [1, 19]: 18667 ×1000
- Aerobic CFU's after 24 hours [1, 20]: 1413333 ×1000
- Anaerobic CFU's after 24 hour [1, 20]: 340000 ×1000
- Fungal CFU's after 24 hours [1, 20]: 17000 ×1000
- Aerobic CFU's after 24 hours [1, 21]: 936667 ×1000
- Anaerobic CFU's after 24 hour [1, 21]: 100000 ×1000
- Fungal CFU's after 24 hours [1, 21]: 223333 ×1000
- Aerobic CFU's after 24 hours [1, 22]: 163333 ×1000
- Anaerobic CFU's after 24 hour [1, 22]: 35667 ×1000
- Fungal CFU's after 24 hours [1, 22]: 273333 ×1000
- Aerobic CFU's after 24 hours [1, 23]: 107333 ×1000
- Anaerobic CFU's after 24 hour [1, 23]: 19333 ×1000
- Fungal CFU's after 24 hours [1, 23]: 24333 ×1000
- Aerobic CFU's after 24 hours [1, 24]: 103333 ×1000
- Anaerobic CFU's after 24 hour [1, 24]: 9333 ×1000
- Fungal CFU's after 24 hours [1, 24]: 12667 ×1000
- Aerobic CFU's after 24 hours [1, 25]: 98333 ×1000
- Anaerobic CFU's after 24 hour [1, 25]: 5467 ×1000
- Fungal CFU's after 24 hours [1, 25]: 8000 ×1000
- total dosage up to which biofilm release continued ([1]; visual observation): 317 ul pure DPD/liter
- MBEC (biofilm eradication) (Streptococcus uberis [2]): >1024 µg/mL
- MBEC (biofilm eradication) ([3]; St. aureus 074): 1024 µg/mL
- MBEC (biofilm eradication) ([3]; St. aureus ATCC 15564): >1024 µg/mL
- MBEC (biofilm eradication) ([3]; St. aureus ATCC 25923): >1024 µg/mL
- MBIC 90 (Streptococcus uberis [4]): >1024 µg/mL
- MBIC 90 ([5]; St. aureus 074): >1024 µg/mL
- MBIC 90 ([5]; St. aureus ATCC 15564): >1024 µg/mL
- MBIC 90 ([5]; St. aureus ATCC 25923): >1024 µg/mL
